# Assays:
# Mab 64G12 = experiment: ELISA binding of peptides to Mab 64G12; design: species or system mouse; details: biotin-SGSG-peptide on streptavidin plates, peptide 20 μM, antibody 1 μg/ml
# Description: Binding of Peptides to Mab 64G12
# The 11 mer (SEQ ID no. 2) and a number of modified versions of that polypeptide derived by deletion or substitution were tested for ability to bind Mab 64G12 by ELISA. […]. The peptides were biotinylated at the N-terminus with a spacer sequence SGSG between the peptide and the biotin, i.e. biotin-SGSG-peptide.
# ELISA screening for ability to bind Mab 64G12 was carried out using Nunc Maxisorb plates coated with Streptavidin 5 μg/ml, 100 μl/well overnight at 37° C. The plates were then blocked with 200 μl/well of PBS containing 0.1% Tween 20, 1% sodium caseinate (CAST) for 1 hour at 20° C. Peptides were dissolved by adding 50 μl of DMSO and 0.6 ml of 40% acetonitrile to each tube. For peptide coating, 100 μl of PBS, 0.1% Tween 20 (PT) were added to each well, followed by 2 μl of each peptide solution (final peptide concentration 20 μM). After 30 mins, the monoclonal antibody was added at 1 μg/ml in PT for 1 hour at 20° C. The plates were washed and 100 μl/well of a 1/2000 dilution of horseradish peroxidase labeled goat anti-mouse IgG (H+L) in CAST plus 1% sheep serum (CASS) was added for 1 hour at 20° C. After washing, 100 μl of ABTS substrate was distributed to all wells. Absorbance was measured after 10 and 45 mins incubation on a plate reader using dual wavelength ([…]) to correct for background.
# [1] = tested on: anti-IFN-R antibody (34F10); experiment: Effect of peptide on binding of non-neutralizing anti-IFN-R antibody 34F10 to the IFN-R; details: epitope distant from the ligand binding site
# IFN-R on Daudi cells = experiment: Inhibition of Type 1-IFN binding to the IFN-R on Daudi cells: 125I-IFN-α2 binding in presence of Mab 64G12 with or without peptide; details: Mab 64G12 2 μg, 125I-labeled human IFN-α2 0.13 nM, 2 hours at 4° C.
# Description: Inhibition of Type 1-IFN Binding to the IFN-R on Daudi Cells.
# Cultures of exponentially growing Daudi cells (2 million cells/0.2 ml RPMI 1640 medium with 10% fetal calf serum) were treated with: Mab 64G12 (2 μg), alone or together with: (i) a soluble affinity purified recombinant polypeptide corresponding to amino acids 1 to 427 of the extracellular domain region sequence of the IFNAR1 chain as reported by Uze et al., 1990, Cell, 60, 224-234 (prepared as described in Benoit et al., 1993, J. Immunol., 150, 707-716 and Published International Application WO 92/18626 and purified first on a NI-NTA agarose column (Qiagen) and subsequently eluted with 300 mM imidazole. The eluted partially purified soluble IFNAR1 was then applied to a 5.0 ml 64G12 Mab sepharose column and eluted with 0.1 M glycine, pH 2.8. The eluted IFNAR1 was pure as determined by SDS-PAGE under denaturing conditions) or (ii) the peptide of SEQ ID no. 2 (the 11 mer). This was followed by the addition of ^125I-labeled human IFN-α2 (iodination as described by Mogensen et al., 1981, Int. J. Cancer, 28, 575-582; 90000 cpm, 0.13 nM) and incubation for 2 hours at 4° C. The cells were then washed 3 times with culture medium containing 1% fetal calf serum and the cell pellet counted in a gamma counter.
Substance,binding to Mab 64G12 by ELISA (Mab 64G12),ability of antibody 34F10 to bind to the IFN-R [1],IFN binding to the IFN-R in the presence of Mab 64G12 (IFN-R on Daudi cells)
FSSLKLNVY (Modified peptide from Hu IFNAR1 receptor) [9 mer],specifically bind,–,–
KLNVYE (Modified peptide from Hu IFNAR1 receptor) [Peptide 7],only background binding,–,–
NFSSLKLNVYE (Modified peptide from Hu IFNAR1 receptor) [Peptide 12],specifically bind,does not affect,restored IFN-binding to a high degree

# From patent publication US20070042963A1, “Therapeutic peptides” (Medarex, Inc., priority 2000, published 2007)
